Test results from patent US7875647B2, “Heteroaryl-pyrazole derivatives as cannabinoid CB1 receptor antagonists” (Green Cross Corporation, priority 2006, dated 2011).

Target: T1, Cannabinoid-1 receptor (CB1R) (Rattus norvegicus, UniProt P20272)
T1 construct: The tissue obtained from the brain of SD rats was homogenized; from tissue; host or cells: brain of SD rats (membrane pellet of the homogenate)
Assay: Cannabinoid-1 receptor (CB1R) binding affinity assay ([3H]CP-55940, rat CB-1 receptor binding protocol)
Conditions: brain tissue of SD rats, [3H]CP-55940, 30° C. 60 min; read-out: IC50
Description: The tissue obtained from the brain of SD rats was homogenized with a Dounce homogenate system in TME (50 mM Tris, 3 mM MgCl2 and 1 mM EDTA, pH 7.4) at 4° C., and the homogenate was centrifuged at 48,000 g for 30 min. at 4° C. The pellet was resuspended in 5 ml of TME and the suspension was divided into aliquots and stored at −70° C. until its use in the following assay.
The tissue concentrations were determined by Bradford protein analysis, and 148 μl of brain tissue of the required concentration was added to the plate. The plate was covered and placed in a 30° C. incubator for 60 min, and then transformed on GF/B filtermat pretreated in polyethylenimine (PEI) using a cell harvester. Each filter was washed five times and dried at 60° C. for 1 hr. Then, the degree of radioactivity retained by the filter was measured using Wallac Microbeta™ (PerkinElmer Life Sciences, Inc., Massachusetts, U.S.A.) and the activity of the compound for inhibiting CB1 receptor was determined therefrom.

T1 sequence (P20272 whole entry): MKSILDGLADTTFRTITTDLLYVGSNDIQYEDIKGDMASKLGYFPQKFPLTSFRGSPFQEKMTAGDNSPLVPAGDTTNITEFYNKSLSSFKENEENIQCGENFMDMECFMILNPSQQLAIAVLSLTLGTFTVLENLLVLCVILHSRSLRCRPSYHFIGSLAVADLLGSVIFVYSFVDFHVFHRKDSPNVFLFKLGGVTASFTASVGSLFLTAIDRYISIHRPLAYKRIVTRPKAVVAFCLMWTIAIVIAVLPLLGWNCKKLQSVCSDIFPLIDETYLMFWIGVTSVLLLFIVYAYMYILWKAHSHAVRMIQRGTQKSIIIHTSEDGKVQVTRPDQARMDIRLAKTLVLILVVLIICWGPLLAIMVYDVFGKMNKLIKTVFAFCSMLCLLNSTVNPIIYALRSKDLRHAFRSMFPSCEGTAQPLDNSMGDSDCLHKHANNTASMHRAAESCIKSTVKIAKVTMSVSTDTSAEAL

IC50 | Compound
563 nM | Cc1c(-c2nnc(-c3ccncc3)o2)nn(-c2ccc(Cl)cc2Cl)c1-c1ccc(Cl)cc1 [Example 2, 2-(5-(4-chlorophenyl)-1-(2,4-dichlorophenyl)-4-methyl-1H-pyrazol-3-yl)-5-(pyridin-4-yl)-1,3,4-oxadiazole]
112 nM | Cc1c(-c2nnc(-c3ccco3)o2)nn(-c2ccc(Cl)cc2Cl)c1-c1ccc(Cl)cc1 [Example 8, 2-(5-(4-chlorophenyl)-1-(2,4-dichlorophenyl)-4-methyl-1H-pyrazol-3-yl)-5-(furan-2-yl)-1,3,4-oxadiazole]
196 nM | Cc1c(-c2nnc(-c3cnccn3)o2)nn(-c2ccc(Cl)cc2Cl)c1-c1ccc(Cl)cc1 [Example 10, 2-(5-(4-chlorophenyl)-1-(2,4-dichlorophenyl)-4-methyl-1H-pyrazol-3-yl)-5-(pyrazin-2-yl)-1,3,4-oxadiazole]
96.6 nM | Cc1c(-c2nnc(-c3cccs3)o2)nn(-c2ccc(Cl)cc2Cl)c1-c1ccc(Cl)cc1 [Example 11, 2-(5-(4-chlorophenyl)-1-(2,4-dichlorophenyl)-4-methyl-1H-pyrazol-3-yl)-5-(thiophen-2-yl)-1,3,4-oxadiazole]
333 nM | Cc1c(-c2nnc(-c3cc4ccccc4o3)o2)nn(-c2ccc(Cl)cc2Cl)c1-c1ccc(Cl)cc1 [Example 18, 2-(Benzofuran-2-yl)-5-(5-(4-chlorophenyl)-1-(2,4-dichlorophenyl)-4-methyl-1H-pyrazol-3-yl)-1,3,4-oxadiazole]
35.7 nM | Cc1c(-c2nnc(CC3CCCC3)o2)nn(-c2ccc(Cl)cc2Cl)c1-c1ccc(Cl)cc1 [Example 22, 2-(5-(4-Chlorophenyl)-1-(2,4-dichlorophenyl)-4-methyl-1H-pyrazol-3-yl)-5-(cyclopentylmethyl)-1,3,4-oxadiazole]
163 nM | Cc1c(-c2nnc(C3CCOCC3)o2)nn(-c2ccc(Cl)cc2Cl)c1-c1ccc(Cl)cc1 [Example 23, 2-(5-(4-Chlorophenyl)-1-(2,4-dichlorophenyl)-4-methyl-1H-pyrazol-3-yl)-5-(tetrahydro-2H-pyran-4-yl)-1,3,4-oxadiazole]
22.7 nM | Cc1c(-c2nnc(CC3CCCCC3)o2)nn(-c2ccc(Cl)cc2Cl)c1-c1ccc(Cl)cc1 [Example 24, 2-(5-(4-Chlorophenyl)-1-(2,4-dichlorophenyl)-4-methyl-1H-pyrazol-3-yl)-5-(cyclohexylmethyl)-1,3,4-oxadiazole]
60 nM | Cc1c(-c2nnc(C3CCCO3)o2)nn(-c2ccc(Cl)cc2Cl)c1-c1ccc(Cl)cc1 (centres unmarked) [Example 25, 2-(5-(4-Chlorophenyl)-1-(2,4-dichlorophenyl)-4-methyl-1H-pyrazol-3-yl)-5-(tetrahydrofuran-2-yl)-1,3,4-oxadiazole]
12.7 nM | Cc1c(-c2nnc(C3CC4CCC3C4)o2)nn(-c2ccc(Cl)cc2Cl)c1-c1ccc(Cl)cc1 (centres unmarked) [Example 52, 2-(bicyclo[2.2.1]heptan-2-yl)-5-(5-(4-chlorophenyl)-1-(2,4-dichlorophenyl)-4-methyl-1H-pyrazol-3-yl)-1,3,4-oxadiazole]
11.2 nM | Cc1c(-c2nnc(C(C)CC3CCC3)o2)nn(-c2ccc(Cl)cc2Cl)c1-c1ccc(Cl)cc1 (centres unmarked) [Example 54, 2-(5-(4-chlorophenyl)-1-(2,4-dichlorophenyl)-4-methyl-1H-pyrazol-3-yl)-5-(1-cyclobutylpropan-2-yl)-1,3,4-oxadiazole]
10.3 nM | CCc1c(-c2nnc(CC3CCCCC3)o2)nn(-c2ccc(Cl)cc2Cl)c1-c1ccc(Br)cc1 [Example 55, 2-(5-(4-bromophenyl)-1-(2,4-dichlorophenyl)-4-ethyl-1H-pyrazol-3-yl)-5-(cyclohexylmethyl)-1,3,4-oxadiazole]
37.6 nM | Cc1c(-c2nnc(CC3CCCCC3)o2)nn(-c2ccc(Cl)cc2Cl)c1-c1ccc(Br)cc1 [Example 56, 2-(5-(4-bromophenyl)-1-(2,4-dichlorophenyl)-4-methyl-1H-pyrazol-3-yl)-5-(cyclohexylmethyl)-1,3,4-oxadiazole]
22.2 nM | Cc1c(-c2nnc(C(C)C3CCCC3)o2)nn(-c2ccc(Cl)cc2Cl)c1-c1ccc(Cl)cc1 (centres unmarked) [Example 61, 2-(5-(4-chlorophenyl)-1-(2,4-dichlorophenyl)-4-methyl-1H-pyrazol-3-yl)-5-(1-cyclopentylethyl)-1,3,4-oxadiazole]
51.7 nM | Cc1c(-c2nnc(C(C)C3CCCCC3)o2)nn(-c2ccc(Cl)cc2Cl)c1-c1ccc(Cl)cc1 (centres unmarked) [Example 62, 2-(5-(4-chlorophenyl)-1-(2,4-dichlorophenyl)-4-methyl-1H-pyrazol-3-yl)-5-(1-cyclohexylethyl)-1,3,4-oxadiazole]
19.1 nM | Cc1c(-c2nnc(C(C)(C)C3CCCC3)o2)nn(-c2ccc(Cl)cc2Cl)c1-c1ccc(Cl)cc1 [Example 63, 2-(5-(4-chlorophenyl)-1-(2,4-dichlorophenyl)-4-methyl-1H-pyrazol-3-yl)-5-(2-cyclopentylpropan-2-yl)-1,3,4-oxadiazole]
15.2 nM | Cc1c(-c2nnc(C(C)(C)C3CCCCC3)o2)nn(-c2ccc(Cl)cc2Cl)c1-c1ccc(Cl)cc1 [Example 64, 2-(5-(4-chlorophenyl)-1-(2,4-dichlorophenyl)-4-methyl-1H-pyrazol-3-yl)-5-(2-cyclohexylpropan-2-yl)-1,3,4-oxadiazole]
12.4 nM | Cc1c(-c2nnc(C3(C)CC3(Cl)Cl)o2)nn(-c2ccc(Cl)cc2Cl)c1-c1ccc(Cl)cc1 (centres unmarked) [Example 65, 2-(5-(4-chlorophenyl)-1-(2,4-dichlorophenyl)-4-methyl-1H-pyrazol-3-yl)-5-(2,2-dichloro-1-methylcyclopropyl)-1,3,4-oxadiazole]
11 nM | Cc1c(-c2nnc(C3(c4ccccc4)CC3)o2)nn(-c2ccc(Cl)cc2Cl)c1-c1ccc(Cl)cc1 [Example 71, 2-(5-(4-chlorophenyl)-1-(2,4-dichlorophenyl)-4-methyl-1H-pyrazol-3-yl)-5-(1-phenylcyclopropyl)-1,3,4-oxadiazole]
36.1 nM | Cc1c(-c2nnc(C(C)(C)Oc3ccccn3)o2)nn(-c2ccc(Cl)cc2Cl)c1-c1ccc(Cl)cc1 [Example 80, 2-(5-(4-chlorophenyl)-1-(2,4-dichlorophenyl)-4-methyl-1H-pyrazol-3-yl)-5-(2-(pyridin-2-yloxy)propan-2-yl)-1,3,4-oxadiazole]

Compound | IC50
2-(1-benzylcyclopropyl)-5-(5-(4-bromophenyl)-1-(2,4-dichlorophenyl)-4-ethyl-1H-pyrazol-3-yl)-1,3,4-oxadiazole [Example 271] | 5.88 nM
2-(1-benzylcyclopropyl)-5-(5-(4-chlorophenyl)-1-(2,4-dichlorophenyl)-4-methyl-1H-pyrazol-3-yl)-1,3,4-thiadiazole [Example 467] | 14.8 nM
2-(5-(4-chlorophenyl)-1-(2,4-dichlorophenyl)-4-methyl-1H-pyrazol-3-yl)-5-cyclohexyl-1,3,4-thiadiazole [Example 347] | 51.3 nM
5-(5-(4-Chlorophenyl)-1-(2,4-dichlorophenyl)-4-methyl-1H-pyrazol-3-yl)-1-cycloheptyl-1H-tetrazole [Example 601] | 26.7 nM
5-(5-(4-Chlorophenyl)-1-(2,4-dichlorophenyl)-4-methyl-1H-pyrazol-3-yl)-1-octyl-1H-tetrazole [Example 604] | 47.3 nM
Cc1c(-c2nnc(C3(c4ccc(Cl)cc4)CC3)o2)nn(-c2ccc(Cl)cc2Cl)c1-c1ccc(Cl)cc1 [Example 67, 2-(5-(4-chlorophenyl)-1-(2,4-dichlorophenyl)-4-methyl-1H-pyrazol-3-yl)-5-(1-(4-chlorophenyl)cyclopropyl)-1,3,4-oxadiazole] | 8.61 nM
